Entries after “also recorded” stand apart in the source; their conditions may differ.
Tests used:
[1] = tested on: C2C12 cells; assay: Statin-reduced myogenesis of C2C12 cells with or without Simvastatin; type: cell-based, murine; conditions: C2C12, 44 hours; for myoblast differentiation / myogenesis in the presence of Simvastatin: FIG. 5
Text: It is estimated that 10-15% of individuals who take statins-related compounds develop statin-related muscle adverse effects, ranging from mild myalgia to more severed muscle symptoms while the mechanism of statin-induced myopathy remains undetermined. In vitro myogenesis, statins-related compounds reduce in vitro myogenesis and stable adhesion of myotubes. Thus, it was examined whether GlcNAc treatment has any significant effect on the statin-reduced myogenesis. Myogenesis of murine myoblast cells, C2C12 cells was induced by replacing the medium from growing medium to differentiation medium as above DMEM in the presence or absence of different doses of N-acetylglucosamine (GlcNAc) with or without Simvastatin for 44 hours. Cells were then fixed in 3.8% paraformaldehyde containing phosphate buffered saline (PBS) for 15 min. Then cells were permeabilized by PBS-0.25% Triton X100 for 5 min. After washed with PBS, the cells were incubated with anti-MHC antibody (Clone MF-20, 2.5 μg/ml) in the blocking agents (Vectors laboratories) for an hour, followed by anti-mouse antibody labelled with Alex 488. Then nuclei of the cells were stained with DAPI. Fluorescent images were taken through 20× objectives by using Queorum WaveFX spinning Disc confocal system.

[2] = human, long-term oral administration; cited from earlier work
[3] = tested on: Myoblasts derived from a patient of DM1; assay: Myogenesis of myoblasts derived from a patient of myotonic dystrophy 1; type: cell-based, human; conditions: after 120 hours of differentiation, FIG. 3
Experimental: It is known that myogenesis is impaired in myotonic dystrophy 1 (DM1). The therapeutic potential of GlcNAc on this impaired myogenesis was thus tested. Myoblasts derived from a patient of DM1 were grown in DMEM supplemented with 20% fetal calf serum till the density of cells reached to 90% confluency. Then, the differentiation was induced by changing the medium to DMEM supplemented with 1% fetal calf serum, 10 μg/ml insulin, and 100 μg/ml apotransferrin. After 120 hours, cells were fixed and MHC in the cells were visualized by the method described in Example 1.

[4] = tested on: C2C12 cells; assay: Myogenesis of murine myoblast C2C12 cells (MHC-positive multinucleated myotubes, immunofluorescence); type: cell-based; conditions: for myogenesis (GlcNAc vs glucosamine): C2C12, different doses, FIGS. 4A-4F; for number of multinuclear MHC expressing myotubes: C2C12, differentiation stopped after 72 hours
Experimental: (§1) N-Acetylglucosamine promotes myogenesis of murine myoblasts: Myogenesis of murine myoblast cells, C2C12 cells was induced by replacing the medium from growing medium (DMEM supplemented with 10% fetal calf serum) to DMEM supplemented with 1% horse serum, insulin (10 μg/ml), transferrin (5.5 μg/ml) and selenium (5 ng/ml) in the presence or absence of different doses of N-acetylglucosamine (GlcNAc). This condition induces the differentiation of myoblasts, including the induction of the synthesis of myosine heavy chains (MHC). Then myoblasts start fusing with each other to form myotubes, which are multinucleated. Cells were fixed in 3.8% paraformaldehyde containing phosphate buffered saline (PBS) for 15 min. Then cells were permeabilized by PBS-0.25% Triton X100 for 5 min. After washed with PBS, the cells were incubated with anti-MHC antibody (Clone MF-20, 2.5 μg/ml) in the blocking agents (Vectors laboratories) for an hour, followed by anti-mouse antibody labelled with Alex 488. Then nuclei of the cells were stained with DAPI. Fluorescent images were taken through 20× objectives by using Queorum WaveFX spinning Disc confocal system.
In the condition shown in FIG. 1, the myogenesis was stopped after the differentiation for 72 hours, which was 18 hours after the presence of myotubes became detectable. […] In FIGS. 2A and 2B, the differentiation was stopped at 62 hours. Fields of view (5×5 FOVs) are stitched together and shown here. One FOV is 0.533 mm square. White color is MHC-positive myotube cells.
as §1, with “Glucosamine is a commercially available supplement, which has been claimed to reduce arthritic pain, although there is any scientific evidence to support this claim. It was examined whether glucosamine has any significant effect on the myogenesis.” for “N-Acetylglucosamine promotes myogenesis of murine myoblasts:”, “(GlcNAc) or glucosamine.” for “(GlcNAc).”, “fusing” for “fusing with”, “PBS—0.25%” for “PBS-0.25%”

[5] = tested on: C2C12 cells; assay: as above; type: cell-based; conditions: FIG. 4

Compound | formation of myotube in the presence of Simvastatin alone [1] | adverse effect [2] | myogenesis of human myoblasts of DM1 [3] | myogenesis of human myoblasts of DM1 ([3]; listed as N-acetylglucosamine) | myogenesis (GlcNAc vs glucosamine) [4] | myogenesis (GlcNAc vs glucosamine) ([4]; listed as N-acetylglucosamine) | number of multinuclear MHC expressing myotubes ([4]; FIG. 1) | number of multinuclear MHC expressing myotubes ([4]; FIG. 1, listed as N-acetylglucosamine) | number, length and width of myotubes ([4]; C2C12, differentiation stopped at 62 hours, FIGS. 2A and 2B) | myogenesis of C2C12 cells ([4]; dose of 0.2 mM, 72 hours, FIG. 1) | myoblast differentiation / myogenesis in the presence of Simvastatin [1] | myoblast differentiation / myogenesis in the presence of Simvastatin ([1]; listed as N-acetylglucosamine) | adhesion of myotubes ([1]; with Simvastatin, preliminary data not shown) | cell toxicity [5]
CCC(C)(C)C(=O)O[C@H]1C[C@@H](C)C=C2C=C[C@H](C)[C@H](CC[C@@H]3C[C@@H](O)CC(=O)O3)[C@H]21 [Simvastatin, reference compound] | the formation of myotube was reduced |  |  |  |  |  |  |  |  |  |  |  |  | 
CC(=O)N[C@H]1C(O)O[C@H](CO)[C@@H](O)[C@@H]1O (stereo partly drawn) [GlcNAc, N-acetylglucosamine] |  | not to have any significant adverse effect | promote the myogenesis of human myoblasts of DM1 | increase of the myogenesis of human myoblasts | Promotes the Myogenesis | increases the formation of myotubes | increases the number of multinuclear MHC expressing myotubes | increase of myogenesis of mouse myoblasts | increased not only the number of multinuclear MHC expressing myotubes but also the length and width of the myotubes | promotes myogenesis of C2C12 cells | renders myoblast appropriate differentiation even in the presence of Simvastatin | restores the myogenesis that is partially impaired by statin | stabilizes the adhesion of myotubes | 
N[C@H]1C(O)O[C@H](CO)[C@@H](O)[C@@H]1O (stereo partly drawn) [glucosamine] |  |  |  |  | fails to promote the myogenesis; also recorded: inhibition of myogenesis; also recorded: fails to induce any positive impact on the myogenesis |  |  |  |  |  |  |  |  | showed toxicity to the myotubes; also recorded: induce cell toxicity
